{"source": "paper PMC10182713", "about": "(South African Journal of Botany, 2023)", "origin": "cited, not measured here", "test_system": "multidrug-resistant TB", "conditions": "ref Favela-Hernández et al. (2012); cited from earlier work", "data": [{"smiles": "COc1cc(O)c2c(=O)c(OC)c(-c3ccc(O)cc3)oc2c1OC", "note": "[5,4-dihydroxy 3,7,8-trimethoxyflavone]", "values": [{"measurement": "Activity against multidrug-resistant TB in words", "result": "active"}]}, {"smiles": "COc1cc(-c2oc3c(OC)c(OC)cc(O)c3c(=O)c2OC)ccc1O", "note": "[5,4-dihydroxy-3,7,8,3-tetramethoxyflavone]", "values": [{"measurement": "Activity against multidrug-resistant TB in words", "result": "active"}]}]}
